Consider six compounds from ChEMBL document CHEMBL1201862, “PubChem BioAssay data set” (2004).

Activity calls are given as the source filed them.

The target of assay [1] is Delta-type opioid receptor (Homo sapiens, UniProt P41143). Kind of assay: Counterscreen for agonists of heterodimerization of the mu 1 (OPRM1) and delta 1 (OPRD1) opioid receptors: Luminescence-based cell-based high throughput dose response assay to identify agonists of OPRD1 homodimerization. [Related pubchem assays (depositor defined):AID504326, AID504355, AID504692, AID504904, AID504905]. It counts as functional.

Assay [2] in a line: inhibitors of HIV Env-driven cell fusion, dose response, cherry-pick (AID 652057). It counts as functional, cell-based.
Assay [3] deals with G-protein coupled receptor 55 (Homo sapiens, UniProt Q9Y2T6). Kind of assay: GPR55 agonists via beta-arrestin recruitment, primary screen, imaging, U2OS cells, beta-arrestin-GFP redistribution (AID 1961). It counts as functional. On the technique in general: Activated receptors often draw arrestin, which recruitment assays turn into a signal.
Assay [4] in a line: CEM21 lymphoblast cell cytotoxicity, dose response, cytotoxicity control for viral fusion inhibitor project, CellTiter-Glo luminescence, cherry-picked (AID 652042).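 Note: potency for signal decrease meaning cytotoxicity.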 It counts as functional, cell-based. A general note: Cellular ATP, detected with luciferase, serves as a proxy for viable cell number.
Assay [5] in a line: growth suppression of PTEN-null colon cells, dose response, cell-based, HCT116 PTEN knockout (AID 1047).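 Note: HCT116 colon tumor cells with PTEN knocked out; cells exposed to compound for 60 hours before readout; potency for loss of cell viability measured by luminescence.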 It counts as functional.
Assay [6] can be described thus: non-specific cell cytotoxicity, dose response, cytotoxicity control for PAX8 inhibitor project, plate reader, dry powder samples (AID 743021). It is filed as functional, cell-based.
A short description of assay [7]: inhibitors of firefly luciferase expression or activity, dose response, H4 neuroglioma cells, luminescence (AID 1990). It counts as functional, cell-based.
The subject of assay [8] is BJ. Kind of assay: cytotoxicity toward Ras-transformed BJeLR fibroblasts, dose response, cell-based, alamar blue fluorescence, cherrypicked samples (AID 2631).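 Note: confirmatory dose-response assay in RAS-dependent BJ fibroblasts engineered with TERT, LT and ST, with cytotoxicity read by fluorescence.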 It is filed as functional. The note with it: Homo sapiens.
Assay [9] addresses T1, Heat shock factor protein 1 (Mus musculus, UniProt P38532).
T1 sequence (P38532 whole entry): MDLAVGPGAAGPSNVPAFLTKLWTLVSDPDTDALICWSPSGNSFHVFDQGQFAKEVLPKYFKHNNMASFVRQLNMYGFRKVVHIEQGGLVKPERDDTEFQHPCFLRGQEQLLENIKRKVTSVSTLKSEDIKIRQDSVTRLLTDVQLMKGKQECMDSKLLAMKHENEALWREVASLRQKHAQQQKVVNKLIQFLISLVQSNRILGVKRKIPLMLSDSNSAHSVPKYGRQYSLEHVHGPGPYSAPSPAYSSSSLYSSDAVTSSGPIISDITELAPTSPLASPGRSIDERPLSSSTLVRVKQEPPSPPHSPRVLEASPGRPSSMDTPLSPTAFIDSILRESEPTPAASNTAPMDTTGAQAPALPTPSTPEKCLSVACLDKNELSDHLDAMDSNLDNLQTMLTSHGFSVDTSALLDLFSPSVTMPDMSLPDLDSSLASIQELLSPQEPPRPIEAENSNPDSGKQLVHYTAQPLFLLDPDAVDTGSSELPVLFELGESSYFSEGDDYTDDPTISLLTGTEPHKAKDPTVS
Description: inhibition of MG132-induced HSE-luciferase signal, confirmation, cell-based, NIH3T3, luminescence, dose retest (AID 2382).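 Note: NIH3T3 fibroblasts with HSF1-driven luciferase reporter stressed by proteasome inhibitor MG132; luminescence from HSF1-driven luciferase expression after 8 hours of MG132 stress.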 It is filed as functional.

Assay [10] deals with BJ. Kind of assay: cytotoxicity toward BJ-TERT-LT-ST fibroblasts, dose response, cell-based, RAS-independent, luminescence (AID 1935).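 Note: BJ fibroblasts immortalized with TERT plus LT and ST oncogenes.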 It counts as functional. The note with it: Homo sapiens.
Assay [11] can be described thus: cytotoxicity toward DRD oncogenic fibroblasts, dose response, cell-based, non-viral oncogenic, luminescence (AID 1934). It is filed as functional. The note with it: Homo sapiens.
Assay [12] is described as follows: Counterscreen for AddAB inhibitors: absorbance-based bacterial cell-based high throughput dose response assay for inhibitors of bacterial viability. [Related pubchem assays (depositor defined):AID435030, AID449728, AID449731, AID488942, AID488955, AID488956]. It is filed as functional. Background: Counterscreens check selectivity or assay interference.
Assay [13] has as its system BJ. Description: cells. It is filed as functional, cell-based. Particulars: Homo sapiens.
Another assay deals with T2, Protein skinhead-1 (Caenorhabditis elegans, UniProt P34707).
T2 sequence (P34707 whole entry): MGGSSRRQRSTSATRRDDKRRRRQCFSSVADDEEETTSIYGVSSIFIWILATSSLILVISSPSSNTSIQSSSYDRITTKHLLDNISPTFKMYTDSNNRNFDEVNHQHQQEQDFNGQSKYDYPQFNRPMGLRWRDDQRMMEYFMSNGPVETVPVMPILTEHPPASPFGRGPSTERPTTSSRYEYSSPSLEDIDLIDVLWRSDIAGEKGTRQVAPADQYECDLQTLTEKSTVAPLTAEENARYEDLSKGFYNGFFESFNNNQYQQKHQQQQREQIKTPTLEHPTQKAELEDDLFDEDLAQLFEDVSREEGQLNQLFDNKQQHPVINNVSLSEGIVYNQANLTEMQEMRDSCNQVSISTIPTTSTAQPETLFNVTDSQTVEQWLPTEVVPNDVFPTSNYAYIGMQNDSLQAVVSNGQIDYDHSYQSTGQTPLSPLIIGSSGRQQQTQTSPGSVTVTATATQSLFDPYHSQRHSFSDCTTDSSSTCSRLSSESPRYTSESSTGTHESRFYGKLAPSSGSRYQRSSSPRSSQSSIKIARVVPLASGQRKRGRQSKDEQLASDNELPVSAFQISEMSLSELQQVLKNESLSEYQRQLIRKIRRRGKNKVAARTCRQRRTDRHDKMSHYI
It is filed as functional.

In the next assay the target is SUMO-activating enzyme (Homo sapiens, UniProt Q9UBT2). Kind of assay: inhibitors of in vitro SUMOylation cascade, primary screen, biochemical, HTRF, uHTS (AID 2006). It counts as protein-complex assay.
A further assay in a line: cells. It counts as functional.
The subject of assay [14] is HEK293. Kind of assay: HEK cell cytotoxicity by LDH release, dose response, cytotoxicity control for IDE activator project, fluorescence, HEK cells (AID 588440).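 Note: cytotoxicity by LDH release measuring loss of membrane integrity.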 It is filed as functional, cell-based. Particulars: Homo sapiens.
A short description of assay [15]: THP-1 cell cytotoxicity, dose response, cytotoxicity control for non-replicating M. tuberculosis project (AID 489025). It counts as functional.
The test system of assay [16] is HEK293. Description: optical interference in Abeta FP readout, dose response, artefact control for IDE activator project, biochemical, fluorescence polarization (AID 588442). It counts as functional, cell-based. The note with it: Homo sapiens.
Assay [17] addresses T3, Mitochondrial peptide methionine sulfoxide reductase (Bos taurus, UniProt P54149).
T3 sequence (P54149 whole entry): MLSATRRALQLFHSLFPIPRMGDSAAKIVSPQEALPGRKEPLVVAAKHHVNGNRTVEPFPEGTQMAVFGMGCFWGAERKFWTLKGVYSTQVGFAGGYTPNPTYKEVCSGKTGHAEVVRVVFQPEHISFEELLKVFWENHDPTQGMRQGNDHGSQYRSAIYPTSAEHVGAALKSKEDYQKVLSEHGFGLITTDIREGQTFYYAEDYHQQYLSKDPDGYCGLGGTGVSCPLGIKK
Description: Absorbance-based biochemical high throughput dose response assay for activators of Methionine sulfoxide reductase A (MsrA). It counts as functional.

Sequence of SUMO-activating enzyme (Q9UBE0 whole entry): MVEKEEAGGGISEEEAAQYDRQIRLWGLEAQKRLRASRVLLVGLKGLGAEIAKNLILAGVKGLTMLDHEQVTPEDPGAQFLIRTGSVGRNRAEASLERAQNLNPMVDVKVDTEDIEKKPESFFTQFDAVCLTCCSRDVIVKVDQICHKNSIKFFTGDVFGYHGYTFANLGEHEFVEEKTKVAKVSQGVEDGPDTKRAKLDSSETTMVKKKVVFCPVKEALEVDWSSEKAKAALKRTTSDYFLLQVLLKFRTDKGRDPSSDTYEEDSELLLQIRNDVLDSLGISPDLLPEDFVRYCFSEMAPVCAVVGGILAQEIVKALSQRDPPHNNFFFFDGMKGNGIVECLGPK
Sequence of SUMO-activating enzyme (Q9UBT2 whole entry): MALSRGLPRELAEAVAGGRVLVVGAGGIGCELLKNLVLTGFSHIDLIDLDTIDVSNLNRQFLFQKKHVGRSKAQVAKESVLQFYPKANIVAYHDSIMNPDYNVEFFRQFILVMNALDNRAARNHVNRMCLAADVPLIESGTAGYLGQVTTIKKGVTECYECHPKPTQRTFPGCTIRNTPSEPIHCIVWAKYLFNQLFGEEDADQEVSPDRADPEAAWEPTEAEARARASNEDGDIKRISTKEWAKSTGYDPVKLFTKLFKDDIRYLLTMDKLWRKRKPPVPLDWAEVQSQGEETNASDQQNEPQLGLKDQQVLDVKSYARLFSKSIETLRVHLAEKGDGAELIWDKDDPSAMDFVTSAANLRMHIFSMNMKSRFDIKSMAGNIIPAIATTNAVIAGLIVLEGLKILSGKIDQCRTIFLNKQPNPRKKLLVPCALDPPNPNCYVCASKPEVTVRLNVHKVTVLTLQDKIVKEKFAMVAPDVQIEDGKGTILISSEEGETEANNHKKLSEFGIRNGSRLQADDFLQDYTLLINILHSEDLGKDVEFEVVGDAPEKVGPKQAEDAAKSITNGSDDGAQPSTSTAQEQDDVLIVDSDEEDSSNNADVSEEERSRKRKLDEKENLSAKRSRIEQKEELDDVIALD
Sequence of G-protein coupled receptor 55 (Q9Y2T6 whole entry, the tested form may be a part): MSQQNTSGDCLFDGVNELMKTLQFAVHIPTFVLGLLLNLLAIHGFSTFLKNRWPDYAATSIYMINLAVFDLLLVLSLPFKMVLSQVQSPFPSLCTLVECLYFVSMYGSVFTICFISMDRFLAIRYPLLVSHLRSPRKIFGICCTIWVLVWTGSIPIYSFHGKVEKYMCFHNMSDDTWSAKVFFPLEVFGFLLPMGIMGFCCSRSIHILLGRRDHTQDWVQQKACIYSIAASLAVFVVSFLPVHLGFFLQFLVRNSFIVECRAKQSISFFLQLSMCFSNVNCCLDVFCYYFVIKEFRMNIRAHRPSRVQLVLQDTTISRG
Sequence of Delta-type opioid receptor (P41143 whole entry): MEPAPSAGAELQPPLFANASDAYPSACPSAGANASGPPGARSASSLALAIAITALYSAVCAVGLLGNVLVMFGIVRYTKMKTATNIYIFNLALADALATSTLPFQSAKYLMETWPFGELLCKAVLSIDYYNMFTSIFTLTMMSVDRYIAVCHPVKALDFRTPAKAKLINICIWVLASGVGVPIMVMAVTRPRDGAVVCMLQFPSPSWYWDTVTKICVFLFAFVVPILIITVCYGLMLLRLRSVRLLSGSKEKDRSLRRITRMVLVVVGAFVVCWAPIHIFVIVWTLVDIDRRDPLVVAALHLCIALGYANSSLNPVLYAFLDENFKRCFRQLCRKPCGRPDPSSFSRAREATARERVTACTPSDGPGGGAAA

As usually defined, the EC50 is the concentration needed to bring the measured effect to its halfway point. Broadly, the AC50 is the concentration at which the activity in the assay is half-maximal. As to `CCc1ccc(Nc2n[n+](-c3ccccc3)c(-c3c(Cl)cccc3Cl)s2)cc1`, the EC50 was 14.2 µM (inactive) in assay [1] and > 32 µM (inactive) in assay [3]. The AC50 was 15.5 µM (active) in assay [2] and 10.8 µM (active) in assay [4].

Turning to `CCOC(=O)c1c(C)[nH]c2c1-c1ccccc1C(=O)C2=O`, the EC50 is 0.487 µM (active) in assay [5], 3.02 µM (active) in [7], 0.554 µM (inconclusive) in the assay on BJ [8] and 1.57 µM (active) in assay [9]. The AC50 in assay [6] was 4.93 µM (active).

Broadly, the IC50 is the concentration that gives 50% inhibition. In the case of `CC(=O)NC(c1ccc2ccccc2c1)c1ccc2cccnc2c1O` (stereo not given), the values for the EC50 (in the assay on BJ [10]; in [11]; in the assay on BJ [13]) were 6.07 µM (inconclusive), 6.52 µM (active) and 6.35 µM (active), respectively. For the same compound, the IC50 in [12] is > 118 µM (inactive).

Consider `CCOC(=O)c1c(C)oc2c1c(/C=N/CCC(=O)O)c(O)c1ccccc12`, for which the IC50 on Protein skinhead-1 is > 100 µM (inactive); at SUMO-activating enzyme, 28.8 µM (active).

As a reminder, the CC50 is the concentration that lowers cell viability or growth by half. Turning to `CCOC(=O)C1=C(c2ccccc2)N=C(N)NC1c1ccc(OCc2ccc(Cl)cc2)c(OC)c1` (stereo not given), the IC50 in “cells” is 9.22 µM (active); with HEK293 [14] it was 13 µM (inactive). Also, in [15], the CC50 was 9.43 µM (active). Moreover, in the assay on HEK293 [16], the EC50 was > 55.9 µM (inactive).

On to `O=C(c1ccccc1)c1coc2c1C(=O)c1ccccc1C2=O`, for which the EC50 in [17] is 37.7 µM (inactive).
